How the values were obtained:
[1] = system: NCl-H460 non-small cell lung cancer cells; assay: Alamar Blue cell viability assay, anti-proliferative/cytotoxic activity; assay type: cell-based; conditions: 72 hours incubation, one range stated for all listed Examples, read-out: −log IC50 NCl-H460 (converted)
Experimental: The anti-proliferative/cytotoxic activity of the compounds described herein, can be tested on NCl-H460 non-small cell lung cancer cells using the Alamar Blue cell viability assay (described in O'Brien et al. Eur J Biochem 267, 5421-5426, 2000). The compounds are dissolved as 20 mM solutions in dimethylsulfoxide (DMSO) and subsequently diluted in semi-logarithmic steps. DMSO dilutions are further diluted 1:100 into Dulbecco's modified Eagle's medium (DMEM) containing 10% fetal calf serum to a final concentration twice as much as the final concentration in the test. NCl-460 cells are seeded into 96 well flat bottom plates at a density of 4000 cells per well in a volume of 50 μl per well. 24 hours after seeding the 50 μl each of the compound dilutions in DMEM medium are added into each well of the 96 Well plate. Each compound dilution is tested as quadruplicates. Wells containing untreated control cells are filled with 50 μl DMEM medium containing 1% DMSO. The cells are then incubated with the substances for 72 hours at 37° C. In a humified atmosphere containing 5% carbon dioxide. To determine the viability of the cells, 10 μl of an Alamar Blue solution (Biosource) are added and the fluorescence is measured at an extinction of 544 nm and an emission of 590 nm. For the calculation of cell viability the emission value from untreated cells is set to 100% viability and the emission rates of treated cells are set in relation to the values of untreated cells. Viabilities are expressed as % values.
The corresponding IC50 values of the compounds for anti-proliferative/cytotoxic activity are determined from the concentration-effect curves.
Representative advantageous IC50 values for anti-proliferation/cytotoxicity determined for the compounds mentioned and numbered as Examples in the examples above follow from the following table A, in which the numbers of the compound correspond to the numbers of the examples.

Row | Structure (SMILES) | melting point [°C] | IC50 [1] [nM]
1 | COc1cc2c(cc1OC)-c1c(C(N)=O)c(-c3cc(C)c(O)c(C)c3)c(C)n1CC2 [Example 33, 2-(4-Hydroxy-3,5-dimethyl-phenyl)-8,9-dimethoxy-3-methyl-5,6-dihydro-pyrrolo[2,1-a]isoquinoline-1-carboxylic acid amide] | 229 to 231 | 
2 | CCOC(=O)c1c(-c2cc(C)c(O)c(C)c2)c(C)n2c1-c1cc(C)c(OC)cc1CC2 [Example 23, 2-(4-Hydroxy-3,5-dimethyl-phenyl)-8-methoxy-3,9-dimethyl-5,6-dihydro-pyrrolo[2,1-a]isoquinoline-1-carboxylic acid ethyl ester] | 179 to 181 | 
3 | CCOC(=O)c1c(-c2cc(C)c(O)c(C)c2)c(C)n2c1-c1cc(F)c(OC)cc1CC2 [Example 21, 9-Fluoro-2-(4-hydroxy-3,5-dimethyl-phenyl)-8-methoxy-3-methyl-5,6-dihydro-pyrrolo[2,1-a]isoquinoline-1-carboxylic acid ethyl ester] |  | 398 to 3160
4 | CCNC(=O)c1c(-c2cc(C)c(O)c(C)c2)c(C)n2c1-c1cc(OC)c(OC)cc1CC2 [Example 35, 2-(4-Hydroxy-3,5-dimethyl-phenyl)-8,9-dimethoxy-3-methyl-5,6-dihydro-pyrrolo[2,1-a]isoquinoline-1-carboxylic acid ethylamide] | 242 to 244 | 
5 | CCOC(=O)c1c(-c2cc(C)c(O)c(C)c2)c(C)n2c1-c1cc(OC)c(OC)cc1C(C)C2 (racemic) [Example 2, (6RS)-2-(4-Hydroxy-3,5-dimethyl-phenyl)-8,9-dimethoxy-3,6-dimethyl-5,6-dihydro-pyrrolo[2,1-a]isoquinoline-1-carboxylic acid ethyl ester] |  | 398 to 3160
6 | CCOC(=O)c1c(-c2cc(C)c(O)c(C)c2)c(C)n2c1-c1cc(OC(F)F)c(OC)cc1CC2 [Example 5, 9-(1,1-Difluoro-methoxy)-2-(4-hydroxy-3,5-dimethyl-phenyl)-8-methoxy-3-methyl-5,6-dihydro-pyrrolo[2,1-a]isoquinoline-1-carboxylic acid ethyl ester] | 152 to 155 | 398 to 3160
7 | CCOC(=O)c1c(-c2cc(C)c(O)c(C)c2)c(C)n2c1-c1cc(N)c(OC)cc1CC2 [Example 25, 9-Amino-2-(4-hydroxy-3,5-dimethyl-phenyl)-8-methoxy-3-methyl-5,6-dihydro-pyrrolo[2,1-a]isoquinoline-1-carboxylic acid ethyl ester] | 104 to 106 | 398 to 3160
8 | COc1cc2c(cc1OC)-c1c(C(=O)N(C)C)c(-c3cc(C)c(O)c(C)c3)c(C)n1CC2 [Example 31, 2-(4-Hydroxy-3,5-dimethyl-phenyl)-8,9-dimethoxy-3-methyl-5,6-dihydro-pyrrolo[2,1-a]isoquinoline-1-carboxylic acid dimethylamide] | 259 to 261 | 
9 | CCOC(=O)c1c(-c2cccc(N(C)C)c2)c(C)n2c1-c1cc(OC)c(OC(F)F)cc1CC2 [Example 10, 8-(1,1-Difluoro-methoxy)-2-(3-dimethylamino-phenyl)-9-methoxy-3-methyl-5,6-dihydro-pyrrolo[2,1-a]isoquinoline-1-carboxylic acid ethyl ester] |  | 398 to 3160
10 | COc1cc2c(cc1OC)-c1c(C(=O)NC(C)C)c(-c3cc(C)c(O)c(C)c3)c(C)n1CC2 [Example 30, 2-(4-Hydroxy-3,5-dimethyl-phenyl)-8,9-dimethoxy-3-methyl-5,6-dihydro-pyrrolo[2,1-a]isoquinoline-1-carboxylic acid isopropylamide] |  | 398 to 3160
11 | COc1cc2c(cc1OC)-c1c(-c3ccccc3)c(-c3cc(C)c(O)c(C)c3)c(C)n1CC2 [Example 27, 4-(8,9-Dimethoxy-3-methyl-1-phenyl-5,6-dihydro-pyrrolo[2,1-a]isoquinolin-2-yl)-2,6-dimethyl-phenol] | 210 to 214 | 
12 | COc1cc2c(cc1OC)-c1c(C(=O)NC3CC3)c(-c3cc(C)c(O)c(C)c3)c(C)n1CC2 [Example 37, 2-(4-Hydroxy-3,5-dimethyl-phenyl)-8,9-dimethoxy-3-methyl-5,6-dihydro-pyrrolo[2,1-a]isoquinoline-1-carboxylic acid cyclopropylamide] | 254 to 256 | 
13 | CCOC(=O)c1c(-c2cc(C)c(O)c(C)c2)c(C)n2c1-c1cc(OC)c(OCCOC)cc1CC2 [Example 18, 2-(4-Hydroxy-3,5-dimethyl-phenyl)-9-methoxy-8-(2-methoxy-ethoxy)-3-methyl-5,6-dihydro-pyrrolo[2,1-a]isoquinoline-1-carboxylic acid ethyl ester] | 169 to 171 | 398 to 3160
14 | CCOC(=O)c1c(-c2cccc(N(C)C)c2)c(C)n2c1-c1cc(Cl)c(OC)cc1CC2 [Example 16, 9-Chloro-2-(3-dimethylamino-phenyl)-8-methoxy-3-methyl-5,6-dihydro-pyrrolo[2,1-a]isoquinoline-1-carboxylic acid ethyl ester] |  | 398 to 3160
15 | CCOC(=O)c1c(-c2cc(C)c(O)c(C)c2)c(C)n2c1-c1c(cc(OC)c(OC)c1OC)CC2 [Example 7, 2-(4-Hydroxy-3,5-dimethyl-phenyl)-8,9,10-trimethoxy-3-methyl-5,6-dihydro-pyrrolo[2,1-a]isoquinoline-1-carboxylic acid ethyl ester] | 246 to 251 | 
16 | CCOC(=O)c1c(-c2cc(OC)c(OC)c(OC)c2)c(C)n2c1-c1cc(OC)c(OC(F)F)cc1CC2 [Example 8, 8-(1,1-Difluoro-methoxy)-9-methoxy-3-methyl-2-(3,4,5-trimethoxy-phenyl)-5,6-dihydro-pyrrolo[2,1-a]isoquinoline-1-carboxylic acid ethyl ester] | 155 | 
17 | CCOC(=O)c1c(-c2cc(OC)c(OC)c(OC)c2)c(C)n2c1-c1cc(OC)c(OCCOC)cc1CC2 [Example 19, 9-Methoxy-8-(2-methoxy-ethoxy)-3-methyl-2-(3,4,5-trimethoxy-phenyl)-5,6-dihydro-pyrrolo[2,1-a]isoquinoline-1-carboxylic acid ethyl ester] | 152 to 154 | 
18 | CCOC(=O)c1c(-c2cccc(N(C)C)c2)c(C)n2c1-c1cc(OC(F)F)c(OC)cc1CC2 [Example 4, 9-(1,1-Difluoro-methoxy)-2-(3-dimethylamino-phenyl)-8-methoxy-3-methyl-5,6-dihydro-pyrrolo[2,1-a]isoquinoline-1-carboxylic acid ethyl ester] | 107 to 110 | 398 to 3160
19 | CCOC(=O)c1c(-c2cc(C)c(O)c(C)c2)c(C)n2c1-c1cc([N+](=O)[O-])c(OC)cc1CC2 [Example 22, 2-(4-Hydroxy-3,5-dimethyl-phenyl)-8-methoxy-3-methyl-9-nitro-5,6-dihydro-pyrrolo[2,1-a]isoquinoline-1-carboxylic acid ethyl ester] | 209 to 211 | 398 to 3160
20 | COc1cc2c(cc1OC)-c1c(C(=O)Nc3ccccc3)c(-c3cc(C)c(O)c(C)c3)c(C)n1CC2 [Example 34, 2-(4-Hydroxy-3,5-dimethyl-phenyl)-8,9-dimethoxy-3-methyl-5,6-dihydro-pyrrolo[2,1-a]isoquinoline-1-carboxylic acid phenylamide] | 271 to 273 | 398 to 3160
21 | CCOC(=O)c1c(-c2cc(C)c(O)c(C)c2)c(C)n2c1-c1cc(OC)c(OC(F)F)cc1CC2 [Example 9, 8-(1,1-Difluoro-methoxy)-2-(4-hydroxy-3,5-dimethyl-phenyl)-9-methoxy-3-methyl-5,6-dihydro-pyrrolo[2,1-a]isoquinoline-1-carboxylic acid ethyl ester] | 126 to 128 | 398 to 3160
22 | CCOC(=O)c1c(-c2cc(OC)c(OC)c(OC)c2)c(C)n2c1-c1cc(Cl)c(OC)cc1CC2 [Example 15, 9-Chloro-8-methoxy-3-methyl-2-(3,4,5-trimethoxy-phenyl)-5,6-dihydro-pyrrolo[2,1-a]isoquinoline-1-carboxylic acid ethyl ester] | 172 to 174 | 
23 | CNC(=O)c1c(-c2cc(C)c(O)c(C)c2)c(C)n2c1-c1cc(OC)c(OC)cc1CC2 [Example 32, 2-(4-Hydroxy-3,5-dimethyl-phenyl)-8,9-dimethoxy-3-methyl-5,6-dihydro-pyrrolo[2,1-a]isoquinoline-1-carboxylic acid methylamide] | 281 to 283 | 
24 | CCOC(=O)c1c(-c2cc(C)c(O)c(C)c2)c(C)n2c1-c1cc(OC)c(Cl)cc1CC2 [Example 17, 8-Chloro-2-(4-hydroxy-3,5-dimethyl-phenyl)-9-methoxy-3-methyl-5,6-dihydro-pyrrolo[2,1-a]isoquinoline-1-carboxylic acid ethyl ester] | 167 to 169 | 
25 | COc1cc2c(cc1OC)-c1c(C(=O)c3ccccc3)c(-c3cc(C)c(O)c(C)c3)c(C)n1CC2 [Example 26, 1-[2-(4-hydroxy-3,5-dimethyl-phenyl)-8,9-dimethoxy-3-methyl-5,6-dihydro-pyrrolo[2,1-a]isoquinolin-1-yl]-1-phenyl-methanone] | 194 to 196 | 

From patent US20060148838A1, “Novel pyrrolodihydroisoquinolines useful in the treatment of cancer” (Altana Pharma AG, priority 2003, published 2006)
